As usually defined, the IC50 is the concentration that gives 50% inhibition.

This is an account of results in ChEMBL document CHEMBL3217417, “PRIMACINS, N-cinnamoyl-primaquine conjugates, with improved liver-stage antimalarial activity” (Medchemcomm, 2012).

Structures are written as SMILES.

For one data set, the system named is Plasmodium falciparum. As to the kind of experiment: Antiplasmodial activity against erythrocyte stage of Plasmodium falciparum W2 assessed as growth inhibition after 48 hrs by flow cytometry. The conditions noted are these: W2, 48 h. Type of data set: functional, organism-based. For orientation: In flow cytometry, cells or beads pass a laser one at a time.
The nature of data set [1]: Cytotoxicity against human HuH7 cells assessed as cell viability by alamarblue assay. The format is cell-based. The conditions noted are these: huh-7. In general terms: The colour change of resazurin is a common sign of viable cells or microbes.
The test system of data set [2] is Plasmodium berghei. As to the kind of experiment: Ratio of primaquine IC50 to compound IC50 against liver stage of Plasmodium berghei sporozoites expressing firefly luciferase infected in human Huh7 cells. The format is functional, Huh-7.
Data set [3] concerns Plasmodium berghei. As to the kind of experiment: Antiplasmodial activity against liver stage of Plasmodium berghei sporozoites expressing firefly luciferase infected in human Huh7 cells assessed as inhibition of parasite development treated 1 hr prior to infection followed by compound replenisment at 24 hrs post-infection measured 48 hrs after infection by bioluminescence analysis. The format is functional, organism-based. The note with it: Huh-7, Liver.

As for `COc1ccc(/C=C/C(=O)NCCCC(C)Nc2cc(OC)cc3cccnc23)cc1` (centres undefined), the half-inhibitory concentration (IC50) in the data set on Plasmodium falciparum is not below 10000 nM. Also, in data set [1], the Activity result is given as “Non-toxic”. Also, the “Ratio IC50” value with Plasmodium berghei [2] was more than 2.
Take `COc1cc(NC(C)CCCNC(=O)/C=C/c2ccccc2)c2ncccc2c1` (centres undefined): the 50% inhibitory concentration (IC50) was not below 10000 nM with Plasmodium falciparum and 2010 nM with Plasmodium berghei [3]. Also, the Activity result in data set [1] was “Non-toxic”. In the data set on Plasmodium berghei [2], the “Ratio IC50” value is listed as more than 2.
With `COc1cc(NC(C)CCCNC(=O)/C=C/c2ccc(C)cc2)c2ncccc2c1` (centres undefined), the IC50 in the data set on Plasmodium falciparum was not below 10000 nM; in the data set on Plasmodium berghei [3], 2130 nM. In data set [1], the Activity result was “Non-toxic”. The “Ratio IC50” value with Plasmodium berghei [2] was more than 2.
Regarding `COc1cc(NC(C)CCCNC(=O)/C=C/c2ccc(C(C)C)cc2)c2ncccc2c1` (centres undefined), the IC50 with Plasmodium falciparum came out at 4840 nM; in the data set on Plasmodium berghei [3], 1540 nM. Moreover, in data set [1], the Activity entry is on record as “Non-toxic”. Also, the “Ratio IC50” value with Plasmodium berghei [2] is more than 2.
Regarding `COc1cc(NC(C)CCCNC(=O)/C=C/c2cccc(F)c2)c2ncccc2c1` (centres undefined), the results for the IC50 in the data set with Plasmodium falciparum and with Plasmodium berghei [3] were not below 10000 nM and 1630 nM, respectively. The Activity entry in data set [1] is listed as “Non-toxic”. In the data set with Plasmodium berghei [2], the “Ratio IC50” value is more than 2.
Regarding `COc1cc(NC(C)CCCNC(=O)/C=C/c2ccc(F)cc2)c2ncccc2c1` (centres undefined), the IC50 with Plasmodium falciparum was not below 10000 nM; with Plasmodium berghei [3], 2330 nM. The Activity entry in data set [1] is on record as “Non-toxic”. In the data set on Plasmodium berghei [2], the “Ratio IC50” value is on record as more than 2.
Turning to `COc1cc(NC(C)CCCNC(=O)/C=C/c2ccc(Cl)cc2)c2ncccc2c1` (centres undefined), the values for the concentration for half-maximal inhibition (IC50) in the data set with Plasmodium falciparum and with Plasmodium berghei [3] were not below 10000 nM and 2390 nM, respectively. The Activity entry in data set [1] is “Non-toxic”. Besides, the “Ratio IC50” value in the data set with Plasmodium berghei [2] is recorded as more than 2.
The like results for `COc1cc(NC(C)CCCNC(=O)/C=C/c2ccc(Br)cc2)c2ncccc2c1` (centres undefined) were, in that order, not below 10000 nM, 1380 nM, “Non-toxic” and more than 2.
`COc1cc(NC(C)CCCNC(=O)/C=C/c2ccccc2[N+](=O)[O-])c2ncccc2c1` (centres undefined): the concentration for half-maximal inhibition (IC50) was not below 10000 nM with Plasmodium falciparum and 2360 nM in the data set on Plasmodium berghei [3]. In addition, the Activity entry in data set [1] is given as “Non-toxic”. Moreover, in the data set with Plasmodium berghei [2], the “Ratio IC50” value was more than 2.
The like results for `COc1cc(NC(C)CCCNC(=O)/C=C/c2cccc([N+](=O)[O-])c2)c2ncccc2c1` (centres undefined) were, in that order, not below 10000 nM, 2120 nM, “Non-toxic” and more than 2.
For `COc1cc(NC(C)CCCNC(=O)/C=C/c2ccc([N+](=O)[O-])cc2)c2ncccc2c1` (centres undefined), the IC50 in the data set with Plasmodium falciparum is not below 10000 nM; in the data set on Plasmodium berghei [3] it was 2240 nM. Also, in data set [1], the Activity result is on record as “Non-toxic”. The “Ratio IC50” value in the data set on Plasmodium berghei [2] is more than 2.
As to `C[C@@H]1CC[C@H]2[C@@H](C)C(=O)O[C@@H]3O[C@@]4(C)CC[C@@H]1[C@]32OO4` [ARTEMISININ], in the data set on Plasmodium falciparum, the half-inhibitory concentration (IC50) stood at 5.64 nM.
